Experimental data as given in US20130116263A1, “PAK INHIBITORS FOR THE TREATMENT OF CELL PROLIFERATIVE DISORDERS” (AFRAXIS, INC., priority 2011, published 2013).
Like-named read-outs stand apart in the source and are kept apart here.

Legend:
Assay type in all cases: biochemical
PAK1 = PAK1 (Homo sapiens, UniProt Q13153); assay: In vitro PAK inhibition assay (Z'-LYTE, SelectScreen), PAK1
Method: (§1) Compounds are screened in 1% DMSO (final) in the well. For 10 point titrations, 3-fold serial dilutions are conducted. All Peptide/Kinase Mixtures are diluted to a 2× working concentration in the appropriate Kinase Buffer
The 2×PAK1/Ser/Thr 19 mixture is prepared in 50 mM HEPES pH 7.5, 0.01% BRIJ-35, 10 mM MgCl2, 1 mM EGTA.
(§2) 1. Add the following solutions to a well in a 384-well plate: • 2.5 μL of 4× Test Compound OR (100 nL 100× Test Compound plus 2.4 μL kinase buffer) • 5 μL of 2× Peptide/Kinase (PAK) Mixture • 2.5 μL of 4×ATP Solution
(§3) 3. Incubate the PAK Kinase Reaction at room temperature for 60-minutes
(§4) 4. Add 5 μL of Development Reagent Solution to each well
(§5) 6. Incubate the Development Reaction for 60-minutes
(§6) 7. Determine the fluorescence using a fluorescence plate reader
(§7) SelectScreen® Kinase Profiling Service uses XLfit from IDBS.
(§8) The representative IC50 value with a known inhibitor for each kinase was determined at the ATP bin nearest to the ATP Km app.

PAK2 (PAK65) = PAK2 (PAK65) (Homo sapiens, UniProt Q13177); assay: In vitro PAK inhibition assay (Z'-LYTE, SelectScreen), PAK2
Method: as §1
The 2×PAK2 (PAK65)/Ser/Thr 20 mixture is prepared in 50 mM HEPES pH 7.5, 0.01% BRIJ-35, 10 mM MgCl2, 1 mM EGTA. The final 10 μL Kinase Reaction consists of 0.29-6 ng PAK2 (PAK65) and 2 μM Ser/Thr 20 in 50 mM HEPES pH 7.5, 0.01% BRIJ-35, 10 mM MgCl2, 1 mM EGTA.
as §2, §3, §4, §5, §6, §7, §8

PAK3 = PAK3 (Homo sapiens, UniProt O75914); assay: In vitro PAK inhibition assay (Z'-LYTE, SelectScreen), PAK3
Method: as §1
The 2×PAK3/Ser/Thr 20 mixture is prepared in 50 mM HEPES pH 7.5, 0.01% BRIJ-35, 10 mM MgCl2, 1 mM EGTA.
as §2, §3, §4, §5, §6, §7, §8

PAK4 = PAK4 (Homo sapiens, UniProt O96013); assay: In vitro PAK inhibition assay (Z'-LYTE, SelectScreen), PAK4
Method: as §1
The 2×PAK-4/Ser/Thr 20 mixture is prepared in 50 mM HEPES pH 7.5, 0.01% BRIJ-35, 10 mM MgCl2, 1 mM EGTA. The final 10 μL Kinase Reaction consists of 0.1-0.75 ng PAK-4 and 2 μM Ser/Thr 20 in 50 mM HEPES pH 7.5, 0.01% BRIJ-35, 10 mM MgCl2, 1 mM EGTA. After the 1 hour Kinase Reaction incubation, 5 μL of a 1:256 dilution of Development Reagent A is added.
as §2, §3, §4, §5, §6
SelectScreen® Kinase Profiling Service uses XLfit from IDBS. The dose response curve is curve fit to model number 205 (sigmoidal dose-response model).
The table below provides specifications and data around each kinase. The representative IC50 value with a known inhibitor for each kinase was determined at the ATP bin nearest to the ATP Km app.

PAK4, sequence (O96013 whole entry): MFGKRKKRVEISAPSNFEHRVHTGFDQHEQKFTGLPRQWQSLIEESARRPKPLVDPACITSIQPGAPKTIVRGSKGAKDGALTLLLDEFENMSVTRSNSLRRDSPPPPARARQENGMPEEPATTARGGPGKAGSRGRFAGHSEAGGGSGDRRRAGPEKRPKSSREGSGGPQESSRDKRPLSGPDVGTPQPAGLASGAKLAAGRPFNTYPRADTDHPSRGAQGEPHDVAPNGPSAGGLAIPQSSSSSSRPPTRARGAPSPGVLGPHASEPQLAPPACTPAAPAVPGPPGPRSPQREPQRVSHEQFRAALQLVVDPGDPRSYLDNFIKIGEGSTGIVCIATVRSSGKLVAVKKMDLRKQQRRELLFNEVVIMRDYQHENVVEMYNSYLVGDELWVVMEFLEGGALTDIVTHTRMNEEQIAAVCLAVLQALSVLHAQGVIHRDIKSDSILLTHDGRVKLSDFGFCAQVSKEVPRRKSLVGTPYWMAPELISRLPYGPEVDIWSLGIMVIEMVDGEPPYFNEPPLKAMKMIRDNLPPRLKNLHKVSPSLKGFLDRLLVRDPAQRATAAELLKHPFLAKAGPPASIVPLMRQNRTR
PAK2 (PAK65), sequence (Q13177 whole entry): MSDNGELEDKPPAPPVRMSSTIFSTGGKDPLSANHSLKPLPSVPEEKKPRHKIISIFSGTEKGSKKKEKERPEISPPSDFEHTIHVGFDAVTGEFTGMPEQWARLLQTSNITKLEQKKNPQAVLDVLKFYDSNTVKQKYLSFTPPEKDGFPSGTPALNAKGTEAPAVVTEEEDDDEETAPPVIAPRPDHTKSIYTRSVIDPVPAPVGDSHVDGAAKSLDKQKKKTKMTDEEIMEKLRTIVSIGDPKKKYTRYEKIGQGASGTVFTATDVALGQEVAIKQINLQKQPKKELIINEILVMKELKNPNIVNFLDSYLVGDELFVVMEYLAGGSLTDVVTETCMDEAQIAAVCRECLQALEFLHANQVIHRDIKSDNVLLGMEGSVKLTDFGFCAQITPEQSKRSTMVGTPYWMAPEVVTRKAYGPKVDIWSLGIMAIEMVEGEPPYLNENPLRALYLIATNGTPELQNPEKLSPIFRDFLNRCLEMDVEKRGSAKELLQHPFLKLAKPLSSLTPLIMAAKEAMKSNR
PAK3, sequence (O75914 1-544 isoform O75914-2): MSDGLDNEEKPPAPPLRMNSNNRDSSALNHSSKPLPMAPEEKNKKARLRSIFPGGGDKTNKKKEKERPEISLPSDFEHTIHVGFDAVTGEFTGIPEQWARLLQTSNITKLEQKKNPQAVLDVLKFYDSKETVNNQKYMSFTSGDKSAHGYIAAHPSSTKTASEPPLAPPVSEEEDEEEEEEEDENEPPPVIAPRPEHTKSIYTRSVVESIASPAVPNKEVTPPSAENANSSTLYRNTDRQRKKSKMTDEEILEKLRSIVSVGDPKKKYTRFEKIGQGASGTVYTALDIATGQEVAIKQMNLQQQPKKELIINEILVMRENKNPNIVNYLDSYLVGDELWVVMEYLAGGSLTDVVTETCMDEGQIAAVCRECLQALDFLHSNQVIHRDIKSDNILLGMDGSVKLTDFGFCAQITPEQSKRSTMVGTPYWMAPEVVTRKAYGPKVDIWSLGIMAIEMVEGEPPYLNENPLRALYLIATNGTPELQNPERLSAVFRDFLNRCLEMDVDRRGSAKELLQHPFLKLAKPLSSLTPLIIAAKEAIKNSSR
PAK1, sequence (Q13153 whole entry): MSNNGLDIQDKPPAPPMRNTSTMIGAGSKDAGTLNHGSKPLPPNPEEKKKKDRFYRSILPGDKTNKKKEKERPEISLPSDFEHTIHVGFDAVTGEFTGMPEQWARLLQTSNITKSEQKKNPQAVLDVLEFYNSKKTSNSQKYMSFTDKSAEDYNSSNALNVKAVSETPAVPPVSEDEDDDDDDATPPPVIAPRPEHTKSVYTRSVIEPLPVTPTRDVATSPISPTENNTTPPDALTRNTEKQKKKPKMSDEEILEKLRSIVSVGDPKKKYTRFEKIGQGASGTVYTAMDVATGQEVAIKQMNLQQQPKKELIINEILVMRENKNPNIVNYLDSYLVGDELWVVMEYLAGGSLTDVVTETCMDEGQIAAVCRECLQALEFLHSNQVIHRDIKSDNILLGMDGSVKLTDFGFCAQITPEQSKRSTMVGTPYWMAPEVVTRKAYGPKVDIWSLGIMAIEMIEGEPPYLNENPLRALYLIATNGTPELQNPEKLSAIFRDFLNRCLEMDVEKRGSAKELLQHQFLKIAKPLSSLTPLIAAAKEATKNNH

IC50 (PAK1; read-out: PAK1 IC50) [nM]	IC50 (PAK2 (PAK65); read-out: PAK2 IC50) [nM]	IC50 (PAK3; read-out: PAK3 IC50) [nM]	IC50 (PAK4) [nM]	Compound	IC50 (PAK1) [nM]	IC50 (PAK2 (PAK65)) [nM]	IC50 (PAK3; PAK3 IC50 (nM)) [nM]
50 to 500	50 to 500	50 to 500	> 5000	Cc1cnc(-c2ccc(-c3cc4cnc(NC5CCOCC5)nc4n(Cc4ccccc4C(F)(F)F)c3=O)c(Cl)c2)s1 [Example 26]	–	–	–
50 to 500	50 to 500	50 to 500	> 5000	CCn1c(=O)c(-c2ccc(-c3cccnc3O)cc2Cl)cc2cnc(NC3CCOCC3)nc21 [Example 48]	–	–	–
50 to 500	50 to 500	50 to 500	> 5000	CCn1c(=O)c(-c2ccc(-c3nccnc3C)cc2Cl)cc2cnc(NC3CCN(C)C(=O)C3)nc21 (stereo not drawn) [Example 35]	–	–	–
50 to 500	50 to 500	500 to 5000	> 5000	Cc1cncc(-c2ccc(-c3cc4cnc(N[C@H]5CCOC5)nc4n(CCN(C)C)c3=O)c(Cl)c2)n1 [Example 103]	–	–	–
< 50	< 50	50 to 500	> 5000	CCn1c(=O)c(-c2ccc(-c3cncc(C)n3)cc2Cl)cc2cnc(NCC3CCC(N)CC3)nc21 (stereo not drawn) [Example 131]	–	–	–
500 to 5000	500 to 5000	500 to 5000	> 5000	CCn1c(=O)c(-c2ccc(-c3nccnc3C)cc2Cl)cc2cnc(NC3CCNCC3)nc21 [Example 79]	–	–	–
50 to 500	50 to 500	50 to 500	> 5000	CCn1c(=O)c(-c2ccc(-c3cncc(C)n3)cc2Cl)cc2cnc(NCCOCCN(C)C)nc21 [Example 127, 6-(2-chloro-4-(6-methylpyrazin-2-yl)phenyl)-2-((2-(2-(dimethylamino)ethoxy)ethyl)amino)-8-ethylpyrido[2,3-d]pyrimidin-7(8H)-one]	–	–	–
50 to 500	50 to 500	500 to 5000	> 5000	CCn1c(=O)c(-c2ccc(-c3nccnc3C)cc2Cl)cc2cnc(N[C@@H]3CCOC3)nc21 [Example 58]	–	–	–
< 50	< 50	50 to 500	> 5000	CCn1c(=O)c(-c2ccc(-c3cncc(C)n3)cc2Cl)cc2cnc(NC3CCC(CCN)CC3)nc21 (stereo not drawn) [Example 134]	–	–	–
500 to 5000	500 to 5000	500 to 5000	> 5000	CCn1c(=O)c(-c2ccc(-c3nccnc3C)cc2Cl)cc2cnc(NCCN(C)C)nc21 [Example 13]	–	–	–
50 to 500	50 to 500	50 to 500	> 5000	CCn1c(=O)c(-c2ccc(-c3noc(C)n3)cc2Cl)cc2cnc(N[C@@H]3CCOC3)nc21 [Example 54]	–	–	–
500 to 5000	500 to 5000	500 to 5000	> 5000	CCn1c(=O)c(-c2ccc(-c3nccnc3C)cc2Cl)cc2cnc(NC3CCN(C)CC3)nc21 [Example 5]	–	–	–
< 50	< 50	50 to 500	> 5000	Cc1cncc(-c2ccc(-c3cc4cnc(N[C@H]5CCOC5)nc4n(CCCN(C)C)c3=O)c(Cl)c2)n1 [Example 102]	–	–	–
50 to 500	50 to 500	50 to 500	> 5000	CCn1c(=O)c(-c2ccc(-c3cccnc3F)cc2Cl)cc2cnc(NC3CCOC3)nc21 (stereo not drawn) [Example 39]	–	–	–
50 to 500	50 to 500	50 to 500	> 5000	CCn1c(=O)c(-c2ccc(-c3cncc(C)n3)cc2Cl)cc2cnc(NCC3CCC(N(C)C)CC3)nc21 (stereo not drawn) [Example 132]	–	–	–
< 50	< 50	< 50	> 5000	CCn1c(=O)c(-c2ccc(-c3cncc(C)n3)cc2Cl)cc2cnc(N[C@H]3CC[C@H](CN(C)C)CC3)nc21 [Example 84, 6-(2-chloro-4-(6-methylpyrazin-2-yl)phenyl)-2-((trans-1,4)-4-((dimethylamino)methyl)cyclohexylamino)-8-ethylpyrido[2,3-d]pyrimidin-7(8H)-one]	–	–	–
50 to 500	50 to 500	500 to 5000	> 5000	CCn1c(=O)c(-c2ccc(-c3nccnc3C)cc2Cl)cc2cnc(NC3CCN(C(C)=O)C3)nc21 (stereo not drawn) [Example 19]	–	–	–
50 to 500	50 to 500	500 to 5000	> 5000	CCn1c(=O)c(-c2ccc(-c3cnc(C)cn3)cc2Cl)cc2cnc(N[C@@H]3CCOC3)nc21 [Example 50]	–	–	–
50 to 500	50 to 500	500 to 5000	> 5000	Cc1cncc(-c2ccc(-c3cc4cnc(N[C@@H]5CCOC5)nc4n(C4CCN(C)CC4)c3=O)c(Cl)c2)n1 [Example 107]	–	–	–
50 to 500	50 to 500	50 to 500	> 5000	Cc1cncc(-c2ccc(-c3cc4cnc(NC5CCOCC5)nc4n(C4CCCC4)c3=O)c(Cl)c2)n1 [Example 89]	–	–	–
50 to 500	50 to 500	500 to 5000	> 5000	Cc1cncc(-c2ccc(-c3cc4cnc(N[C@@H]5CCOC5)nc4n(CCN4CCCC4)c3=O)c(Cl)c2)n1 [Example 104]	–	–	–
50 to 500	50 to 500	50 to 500	> 5000	CCn1c(=O)c(-c2ccc(-c3nccnc3C)cc2C)cc2cnc(NC3CCOCC3)nc21 [Example 1, 8-ethyl-6-(2-methyl-4-(3-methylpyrazin-2-yl)phenyl)-2-(tetrahydro-2H-pyran-4-ylamino)pyrido[2,3-d]pyrimidin-7(8H)-one]	–	–	–
50 to 500	< 50	50 to 500	> 5000	CCn1c(=O)c(-c2ccc(-c3nccnc3C)cc2Cl)cc2cnc(N[C@H]3CC[C@H](N)CC3)nc21 [Example 90, 2-(((trans-1,4)-4-aminocyclohexyl)amino)-6-(2-chloro-4-(3-methylpyrazin-2-yl)phenyl)-8-ethylpyrido[2,3-d]pyrimidin-7(8H)-one]	–	–	–
< 50	< 50	< 50	> 5000	Cc1cncc(-c2ccc(-c3cc4cnc(N[C@H]5CCOC5)nc4n([C@H]4CC[C@H](N)CC4)c3=O)c(Cl)c2)n1 [Example 110]	–	–	–
< 50	< 50	50 to 500	> 5000	CCn1c(=O)c(-c2ccc(-c3nccnc3C)cc2Cl)cc2cnc(N[C@@H]3CCOC(C)(C)C3)nc21 (stereo in doubt) [Example 76]	–	–	–
50 to 500	50 to 500	50 to 500	> 5000	CCn1c(=O)c(-c2ccc(-c3nccnc3C)cc2Cl)cc2cnc(NC3CCOC3)nc21 (stereo not drawn) [Example 15]	–	–	–
> 5000	500 to 5000	> 5000	> 5000	CCn1c(=O)c(-c2ccc(-c3nccnc3C)cc2Cl)cc2cnc(NC3CCCCC3)nc21 [Example 3]	–	–	–
< 50	< 50	50 to 500	> 5000	COCCCn1c(=O)c(-c2ccc(-c3cncc(C)n3)cc2Cl)cc2cnc(N[C@H]3CCOC3)nc21 [Example 65]	–	–	–
50 to 500	50 to 500	50 to 500	> 5000	CCn1c(=O)c(-c2ccc(-c3noc(C)n3)cc2Cl)cc2cnc(N[C@H]3CC[C@H](N)CC3)nc21 [Example 94]	–	–	–
50 to 500	50 to 500	50 to 500	> 5000	Cc1nc(-c2ccc(-c3cc4cnc(NC5CCOCC5)nc4[nH]c3=O)c(Cl)c2)no1 [Example 11]	–	–	–

Compound	IC50 (PAK1; read-out: PAK1 IC50) [nM]	IC50 (PAK2 (PAK65); read-out: PAK2 IC50) [nM]	IC50 (PAK3; read-out: PAK3 IC50) [nM]	IC50 (PAK4) [nM]	IC50 (PAK1) [nM]	IC50 (PAK2 (PAK65)) [nM]	IC50 (PAK3; PAK3 IC50 (nM)) [nM]
6-(2-chloro-4-(5-methyl-1,2,4-oxadiazol-3-yl)phenyl)-2-(4-(1-methylpiperidin-4-yl)phenylamino)pyrido[2,3-d]pyrimidin-7(8H)-one [Example 95]	50 to 500	50 to 500	500 to 5000	> 5000	–	–	–
CCn1c(=O)c(-c2ccc(-c3nccnc3C)cc2Cl)cc2cnc(NC3CCOC(C)(C)C3)nc21 (racemic) [Example 30]	< 50	< 50	< 50	> 5000	–	–	–
Cc1nc(-c2ccc(-c3cc4cnc(NC5CCOCC5)nc4n(Cc4ccccc4C(F)(F)F)c3=O)c(Cl)c2)no1 [Example 24]	–	–	–	> 5000	50 to 500	50 to 500	50 to 500
